Common to all, as to type: in vivo
For one data set, the system named is Monochoria vaginalis. The experiment in a line: Test Example 2: herbicidal activity, application during weed generation in submerged conditions (symbol C). As to conditions: Table 23; application herbicide amount 320 g/ha; grade 0-5 by criteria of Test Example 1. In a few lines: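 Visual herbicidal ratings, taken three weeks after dosing, reflect post-emergence water-surface application to seedlings at one to two leaves. Conditions: co-sown weeds in alluvial soil flooded to 4 cm, greenhouse held at 25° C. to 30° C.; compound given as water-diluted emulsion at a fixed herbicide amount.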

Another data set has as its system Setaria viridis. The experiment in a line: Test Example 5: herbicidal effect by foliage application, plastic box (symbol G). As to conditions: 320 g/ha, 3 weeks after application. The method, boiled down:
(§1)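 Emulsion formulation, diluted with water to the intended rate, was applied uniformly to leaves by small sprayer. Recipients were 14-day greenhouse-grown seedlings (25° C. to 30° C.). Assessment followed at 3 weeks.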

The test system of the next data set is transplanted rice plant. The experiment in a line: Test Example 1: effect on crop, application before weed generation in submerged conditions (symbol a). As to conditions: application herbicide amount 320 g/ha. The method, boiled down: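 Rice at 2.5 leaf stage transplanted into submerged soil (4 cm depth) sown with three weed species; herbicide applied before weed emergence.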

A further data set relates to rice. As to the kind of experiment: Test Example 4: effect on crop by soil treatment (symbol b). As to conditions: for b: directly sowed rice plant, effect grade on crop: 320 g/ha; for Effect on crop grade, b: directly sowed rice plant: application herbicide amount 320 g/ha. The method, boiled down:
(§2)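 Plants grew in a 25° C. to 30° C. greenhouse after spot-sowing of seeds, including beet, rapeseed, wheat and rice, into sterilized diluvial soil under roughly 1.5 cm of cover soil.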

The test system of a further data set is rice plant. As to the kind of experiment: Test Example 5: effect on crop by foliage application, plastic box (symbol b). As to conditions: 320 g/ha, 3 weeks after application. In a few lines:
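Soil: sterilized diluvial. Container: plastic box, 21 × 13 cm, 7 cm deep. Sowing: spot-like, ~1.5 cm cover. Growth: greenhouse, 25° C. to 30° C.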

The next data set relates to beet. As to the kind of experiment: Test Example 4: effect on crop by soil treatment (symbol f). The note with it: for f: beet, effect grade on crop: 320 g/ha; for Effect on crop grade, f: beet: application herbicide amount 320 g/ha. In a few lines:
as §2

Data set [1] relates to Echinochloa crus-galli var. crus-galli. As to the kind of experiment: Test Example 4: herbicidal effect by soil treatment (symbol H). As to conditions: for H: Echinochloa crus-galli var. crus-galli, herbicidal effect grade: 320 g/ha; for Herbicidal effect grade, H: Echinochloa crus-galli var. crus-galli: application herbicide amount 320 g/ha. In a few lines: (§3)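 Seeds were sown in sterilized diluvial soil, covered with about 1.5 cm of soil, and the soil surface was sprayed with a water-diluted emulsion of the compound at a predetermined rate. Plants grew in a greenhouse at 25° C. to 30° C.; effects were scored visually 3 weeks after application.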

In data set [2] the test system is Stellaria media. The experiment in a line: Test Example 5: herbicidal effect by foliage application, plastic box (symbol P). As to conditions: 320 g/ha, 3 weeks after application. The method, boiled down:
as §1

In data set [3] the test system is Stellaria media. As to the kind of experiment: Test Example 4: herbicidal effect by soil treatment (symbol P). The note with it: for P: Stellaria media, herbicidal effect grade: 320 g/ha; for Herbicidal effect grade, P: Stellaria media: application herbicide amount 320 g/ha. In a few lines:
as §3

A further data set relates to Digitaria ciliaris. As to the kind of experiment: Test Example 5: herbicidal effect by foliage application, plastic box (symbol F). The note with it: 320 g/ha, 3 weeks after application. The method, boiled down: as §1
A further data set deals with Amaranthus retroflexus. As to the kind of experiment: Test Example 4: herbicidal effect by soil treatment (symbol N). As to conditions: for N: Amaranthus retroflexus, herbicidal effect grade: 320 g/ha; for Herbicidal effect grade, N: Amaranthus retroflexus: application herbicide amount 320 g/ha. In a few lines:
as §3

The test system of the next data set is Abutilon theophrasti. The experiment in a line: Test Example 5: herbicidal effect by foliage application, plastic box (symbol M). As to conditions: 320 g/ha, 3 weeks after application. In a few lines: as §1
The test system of a further data set is Avena fatua. As to the kind of experiment: Test Example 5: herbicidal effect by foliage application, plastic box (symbol I). The note with it: 320 g/ha, 3 weeks after application. The method, boiled down: as §1

Experimental findings from US11000033B2, “Ketone or oxime compound, and herbicide” (NISSAN CHEMICAL CORPORATION, priority 2014, dated 2021) are described below.

As to `CON=C(C)CC1CC(OC(=O)c2nsc(Cl)c2Cl)=C(c2c(C)cc(C)cc2C)C1=O` (centres unmarked) [1-099], the “Herbicidal effect grade, C: Monochoria vaginalis” value (“Herbicidal effect grade, C” for short) in the data set with Monochoria vaginalis is 2 (Herbicidal ratio of 20% or higher and lower than 40%). The “G: Setaria viridis, herbicidal effect (criteria 0-5)” value in the data set with Setaria viridis was 5 (Herbicidal ratio of 90% or more (almost completely withered)). The “Effect grade on crop, a: transplanted rice plant” value with transplanted rice plant is listed as 5 (Herbicidal ratio of 90% or more (almost completely withered)). Also, the “b: directly sowed rice plant, effect grade on crop” value in the data set with rice is reported as 5 (Herbicidal ratio of 90% or more (almost completely withered)). The “b: directly sowed rice plant, effect on crop (criteria 0-5)” value with rice plant was 5 (Herbicidal ratio of 90% or more (almost completely withered)). Also, the “f: beet, effect grade on crop” value with beet was 2 (Herbicidal ratio of 20% or higher and lower than 40%). Also, the “H: Echinochloa crus-galli var. crus-galli, herbicidal effect grade” value in data set [1] was 5 (Herbicidal ratio of 90% or more (almost completely withered)). The “P: Stellaria media, herbicidal effect (criteria 0-5)” value in the data set with Stellaria media [2] is 3 (Herbicidal ratio of 40% or higher and lower than 70%). In addition, in the data set with Stellaria media [3], the “P: Stellaria media, herbicidal effect grade” value was 0 (Herbicidal ratio of 5% or lower (almost no effect)). The “F: Digitaria ciliaris, herbicidal effect (criteria 0-5)” value in the data set on Digitaria ciliaris is 5 (Herbicidal ratio of 90% or more (almost completely withered)). Besides, the “N: Amaranthus retroflexus, herbicidal effect grade” value with Amaranthus retroflexus was 3 (Herbicidal ratio of 40% or higher and lower than 70%). Further, the “M: Abutilon theophrasti, herbicidal effect (criteria 0-5)” value in the data set with Abutilon theophrasti was 4 (Herbicidal ratio of 70% or higher and lower than 90%). Besides, the “I: Avena fatua, herbicidal effect (criteria 0-5)” value in the data set with Avena fatua is listed as 5 (Herbicidal ratio of 90% or more (almost completely withered)).

On to `Cc1cc(C)c(C2=C(O)CC(CC(=NOCC(F)(F)F)C3CC3)C2=O)c(C)c1` (centres unmarked) [1-131], for which the “Herbicidal effect grade, C” value with Monochoria vaginalis is on record as 0 (Herbicidal ratio of 5% or lower (almost no effect)). For the same compound, in the data set with Setaria viridis, the “G: Setaria viridis, herbicidal effect (criteria 0-5)” value was 5 (Herbicidal ratio of 90% or more (almost completely withered)). Besides, the “Effect grade on crop, a: transplanted rice plant” value with transplanted rice plant is 4 (Herbicidal ratio of 70% or higher and lower than 90%). In addition, the “b: directly sowed rice plant, effect grade on crop” value in the data set on rice is given as 5 (Herbicidal ratio of 90% or more (almost completely withered)). The “b: directly sowed rice plant, effect on crop (criteria 0-5)” value in the data set with rice plant is 4 (Herbicidal ratio of 70% or higher and lower than 90%). Further, the “f: beet, effect grade on crop” value with beet is on record as 0 (Herbicidal ratio of 5% or lower (almost no effect)). Besides, the “H: Echinochloa crus-galli var. crus-galli, herbicidal effect grade” value in data set [1] is on record as 5 (Herbicidal ratio of 90% or more (almost completely withered)). In the data set on Stellaria media [2], the “P: Stellaria media, herbicidal effect (criteria 0-5)” value is 0 (Herbicidal ratio of 5% or lower (almost no effect)). Further, in the data set with Stellaria media [3], the “P: Stellaria media, herbicidal effect grade” value is listed as 0 (Herbicidal ratio of 5% or lower (almost no effect)). Moreover, the “F: Digitaria ciliaris, herbicidal effect (criteria 0-5)” value in the data set with Digitaria ciliaris is on record as 0 (Herbicidal ratio of 5% or lower (almost no effect)). Besides, in the data set with Amaranthus retroflexus, the “N: Amaranthus retroflexus, herbicidal effect grade” value is listed as 0 (Herbicidal ratio of 5% or lower (almost no effect)). The “M: Abutilon theophrasti, herbicidal effect (criteria 0-5)” value in the data set with Abutilon theophrasti was 0 (Herbicidal ratio of 5% or lower (almost no effect)). In the data set with Avena fatua, the “I: Avena fatua, herbicidal effect (criteria 0-5)” value was 4 (Herbicidal ratio of 70% or higher and lower than 90%).

With `CC#Cc1cc(C)c(C2=C(OC(=O)COc3ccccc3)CC(CC(C)=NOCC(F)(F)F)C2=O)c(C)c1` (centres unmarked) [9-013], in the data set on Monochoria vaginalis, the “Herbicidal effect grade, C” value is 3 (Herbicidal ratio of 40% or higher and lower than 70%). The “G: Setaria viridis, herbicidal effect grade” value in the data set on Setaria viridis is on record as 5 (Herbicidal ratio of 90% or more (almost completely withered)). The “a (transplanted rice plant) effect on crop grade” value in the data set on transplanted rice plant is reported as 5 (Herbicidal ratio of 90% or more (almost completely withered)). In addition, the “Effect on crop grade, b: directly sowed rice plant” value (“Effect on crop grade, b” for short) with rice is listed as 5 (Herbicidal ratio of 90% or more (almost completely withered)). In the data set with rice plant, the “b: directly sowed rice plant, effect on crop grade” value was 5 (Herbicidal ratio of 90% or more (almost completely withered)). In addition, the “Effect on crop grade, f: beet” value with beet was 5 (Herbicidal ratio of 90% or more (almost completely withered)). Also, the “Herbicidal effect grade, H: Echinochloa crus-galli var. crus-galli” value (from here on “Herbicidal effect grade, H”) in [1] is listed as 5 (Herbicidal ratio of 90% or more (almost completely withered)). For the same compound, the “P: Stellaria media, herbicidal effect grade” value with Stellaria media [2] is 2 (Herbicidal ratio of 20% or higher and lower than 40%). Further, in the data set with Stellaria media [3], the “Herbicidal effect grade, P: Stellaria media” value (shortened to “Herbicidal effect grade, P”) is 0 (Herbicidal ratio of 5% or lower (almost no effect)). Further, in the data set on Digitaria ciliaris, the “F: Digitaria ciliaris, herbicidal effect grade” value is on record as 5 (Herbicidal ratio of 90% or more (almost completely withered)). In addition, in the data set with Amaranthus retroflexus, the “Herbicidal effect grade, N: Amaranthus retroflexus” value (from here on “Herbicidal effect grade, N”) is 1 (Herbicidal ratio of 5% or higher and lower than 20%). In the data set on Abutilon theophrasti, the “M: Abutilon theophrasti, herbicidal effect grade” value is 4 (Herbicidal ratio of 70% or higher and lower than 90%). In the data set with Avena fatua, the “I: Avena fatua, herbicidal effect grade” value is reported as 5 (Herbicidal ratio of 90% or more (almost completely withered)).

In the case of `Cc1cc(Br)cc(C)c1C1=C(O)CC(CC(=O)C2CC2)C1=O` (racemic) [10-004], the “Herbicidal effect grade, C” value in the data set on Monochoria vaginalis is on record as 0 (Herbicidal ratio of 5% or lower (almost no effect)). In the data set on Setaria viridis, the “G: Setaria viridis, herbicidal effect grade” value is given as 5 (Herbicidal ratio of 90% or more (almost completely withered)). Also, the “a (transplanted rice plant) effect on crop grade” value in the data set on transplanted rice plant is given as 5 (Herbicidal ratio of 90% or more (almost completely withered)). In addition, the “Effect on crop grade, b” value in the data set with rice was 5 (Herbicidal ratio of 90% or more (almost completely withered)). In addition, in the data set on rice plant, the “b: directly sowed rice plant, effect on crop grade” value is on record as 5 (Herbicidal ratio of 90% or more (almost completely withered)). For the same compound, the “Effect on crop grade, f: beet” value in the data set on beet is 0 (Herbicidal ratio of 5% or lower (almost no effect)). The “Herbicidal effect grade, H” value in [1] is 5 (Herbicidal ratio of 90% or more (almost completely withered)). Besides, the “P: Stellaria media, herbicidal effect grade” value in the data set on Stellaria media [2] is reported as 0 (Herbicidal ratio of 5% or lower (almost no effect)). In addition, the “Herbicidal effect grade, P” value with Stellaria media [3] is 0 (Herbicidal ratio of 5% or lower (almost no effect)). The “F: Digitaria ciliaris, herbicidal effect grade” value in the data set with Digitaria ciliaris is on record as 5 (Herbicidal ratio of 90% or more (almost completely withered)). The “Herbicidal effect grade, N” value in the data set on Amaranthus retroflexus is on record as 0 (Herbicidal ratio of 5% or lower (almost no effect)). Further, the “M: Abutilon theophrasti, herbicidal effect grade” value with Abutilon theophrasti was 3 (Herbicidal ratio of 40% or higher and lower than 70%). Also, the “I: Avena fatua, herbicidal effect grade” value in the data set on Avena fatua is 5 (Herbicidal ratio of 90% or more (almost completely withered)).

`CC#Cc1cc(C)c(C2=C(O)CC(CC(C)=NOCC(F)(F)F)C2=O)c(C)c1` (centres unmarked) [9-011]: the “Herbicidal effect grade, C” value in the data set on Monochoria vaginalis is 4 (Herbicidal ratio of 70% or higher and lower than 90%). The “G: Setaria viridis, herbicidal effect grade” value in the data set with Setaria viridis is listed as 5 (Herbicidal ratio of 90% or more (almost completely withered)). The “a (transplanted rice plant) effect on crop grade” value with transplanted rice plant is 5 (Herbicidal ratio of 90% or more (almost completely withered)). In addition, in the data set with rice, the “Effect on crop grade, b” value is listed as 5 (Herbicidal ratio of 90% or more (almost completely withered)). Also, the “b: directly sowed rice plant, effect on crop grade” value with rice plant is 5 (Herbicidal ratio of 90% or more (almost completely withered)). For the same compound, the “Effect on crop grade, f: beet” value with beet is 0 (Herbicidal ratio of 5% or lower (almost no effect)). Besides, the “Herbicidal effect grade, H” value in [1] is reported as 5 (Herbicidal ratio of 90% or more (almost completely withered)). In addition, the “P: Stellaria media, herbicidal effect grade” value in the data set on Stellaria media [2] is listed as 0 (Herbicidal ratio of 5% or lower (almost no effect)). The “Herbicidal effect grade, P” value with Stellaria media [3] was 0 (Herbicidal ratio of 5% or lower (almost no effect)). The “F: Digitaria ciliaris, herbicidal effect grade” value in the data set on Digitaria ciliaris was 5 (Herbicidal ratio of 90% or more (almost completely withered)). Further, the “Herbicidal effect grade, N” value in the data set with Amaranthus retroflexus is 0 (Herbicidal ratio of 5% or lower (almost no effect)). The “M: Abutilon theophrasti, herbicidal effect grade” value in the data set with Abutilon theophrasti is 2 (Herbicidal ratio of 20% or higher and lower than 40%). In addition, the “I: Avena fatua, herbicidal effect grade” value in the data set on Avena fatua is 5 (Herbicidal ratio of 90% or more (almost completely withered)).
